{"source": "patent US10184137B2", "about": "“Method of producing isoprene monomer” (AJINOMOTO CO., INC., priority 2014, dated 2019)", "key": {"[1]": {"target": "Corynebacterium variabile mevalonate kinase (cva), wild type, SEQ ID NO:3, N-terminal His-tag (Corynebacterium variabile, UniProt A0A0X2NLH5)", "sequence (A0A0X2NLH5 entry or part of it)": "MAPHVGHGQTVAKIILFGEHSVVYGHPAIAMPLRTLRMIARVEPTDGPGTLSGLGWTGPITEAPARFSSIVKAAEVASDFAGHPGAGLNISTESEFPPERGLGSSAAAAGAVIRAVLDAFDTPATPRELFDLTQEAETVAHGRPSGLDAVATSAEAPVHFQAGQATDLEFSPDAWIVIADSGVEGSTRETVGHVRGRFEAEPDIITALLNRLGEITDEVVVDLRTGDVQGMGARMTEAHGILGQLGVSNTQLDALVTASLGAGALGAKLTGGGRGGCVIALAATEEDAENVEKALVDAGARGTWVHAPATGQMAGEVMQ", "test": "Inhibition of cva-derived mevalonate kinase by DMAPP, GPP, FPP or DPM", "assay_type": "biochemical", "conditions": "1 mM DPM, control 0.073275", "method": "(§1) Km value was calculated by Lineweaver-Burk plot.\n(§2) Since GPP and FPP solutions contain methanol, methanol which was needed to keep the same methanol level at the addition to the reaction system was added to the reaction solution, which was designated as control.\n(§3) Effect of 1 mM diphosphomevalonate (DPM) on each enzyme was also studied."}, "[2]": {"target": "T1, Methanosaeta concilii mevalonate kinase (mcl), wild type, SEQ ID NO:6, N-terminal His-tag (Methanothrix soehngenii, UniProt F4BZB3)", "T1 sequence (F4BZB3 1-317)": "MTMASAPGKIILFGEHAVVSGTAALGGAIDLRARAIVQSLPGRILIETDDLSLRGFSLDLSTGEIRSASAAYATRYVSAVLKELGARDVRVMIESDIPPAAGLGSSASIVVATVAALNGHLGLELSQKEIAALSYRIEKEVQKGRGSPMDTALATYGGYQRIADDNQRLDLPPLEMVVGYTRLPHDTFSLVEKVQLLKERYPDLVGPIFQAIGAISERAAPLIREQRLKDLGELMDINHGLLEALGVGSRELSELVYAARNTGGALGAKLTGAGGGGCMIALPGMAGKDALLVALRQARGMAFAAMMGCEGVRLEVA", "test": "Inhibition of mcl-derived mevalonate kinase by DMAPP, GPP, FPP or DPM", "assay_type": "biochemical", "conditions": "mcl; 1 mM DPM; control 0.1373", "method": "as §1, §2, §3"}, "[3]": {"target": "T2, Methanosarcina mazei mevalonate kinase (mma), wild type, SEQ ID NO:12, N-terminal His-tag (Methanosarcina mazei, UniProt Q8PW39)", "T2 sequence (Q8PW39 1-301)": "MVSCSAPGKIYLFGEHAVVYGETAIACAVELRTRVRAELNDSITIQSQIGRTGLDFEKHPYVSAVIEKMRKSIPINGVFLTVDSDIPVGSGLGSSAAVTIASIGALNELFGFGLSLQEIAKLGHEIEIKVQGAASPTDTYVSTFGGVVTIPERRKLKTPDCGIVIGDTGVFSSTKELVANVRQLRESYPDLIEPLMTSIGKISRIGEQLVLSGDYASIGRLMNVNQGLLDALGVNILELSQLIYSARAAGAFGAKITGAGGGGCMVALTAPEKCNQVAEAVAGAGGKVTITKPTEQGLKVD", "test": "Inhibition of mma-derived mevalonate kinase by DMAPP, GPP, FPP or DPM", "assay_type": "biochemical", "method": "as §1, §2, §3"}, "[4]": {"target": "T3, Methanocella paludicola mevalonate kinase (mpd), wild type, SEQ ID NO:1, N-terminal His-tag (Methanocella paludicola, UniProt D1YZ39)", "T3 sequence (D1YZ39 entry or part of it)": "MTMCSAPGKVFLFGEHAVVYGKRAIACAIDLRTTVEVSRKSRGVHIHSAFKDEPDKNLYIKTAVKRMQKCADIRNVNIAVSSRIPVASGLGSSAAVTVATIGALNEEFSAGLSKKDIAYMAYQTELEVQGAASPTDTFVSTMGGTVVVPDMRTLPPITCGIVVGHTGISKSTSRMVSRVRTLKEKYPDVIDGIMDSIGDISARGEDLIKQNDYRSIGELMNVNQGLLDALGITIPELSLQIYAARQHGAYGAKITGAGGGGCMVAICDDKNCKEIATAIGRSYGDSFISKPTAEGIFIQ", "test": "Inhibition of mpd-derived mevalonate kinase by DMAPP, GPP, FPP or DPM", "assay_type": "biochemical", "conditions": "1 mM DPM, control 0.148", "method": "as §1, §2, §3"}, "[5]": {"target": "T4, Nitrosopumilus maritimus mevalonate kinase (nmr), wild type, SEQ ID NO:9, N-terminal His-tag (Nitrosopumilus maritimus, UniProt A9A427)", "T4 sequence (A9A427 1-313)": "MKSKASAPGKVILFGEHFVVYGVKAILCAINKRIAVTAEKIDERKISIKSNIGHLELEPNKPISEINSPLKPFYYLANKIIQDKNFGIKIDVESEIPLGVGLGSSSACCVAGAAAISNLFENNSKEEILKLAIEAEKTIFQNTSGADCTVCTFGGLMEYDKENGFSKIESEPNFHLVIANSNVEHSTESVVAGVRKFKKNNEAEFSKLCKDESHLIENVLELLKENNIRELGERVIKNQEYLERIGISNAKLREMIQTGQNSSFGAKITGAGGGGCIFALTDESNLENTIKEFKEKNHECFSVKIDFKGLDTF", "test": "Inhibition of nmr-derived mevalonate kinase by DMAPP, GPP, FPP or DPM", "assay_type": "biochemical", "conditions": "1 mM DPM, control 0.2064", "method": "as §1, §2, §3"}, "[6]": {"target": "T5, Saccharomyces cerevisiae mevalonate kinase (sce, ERG12), wild type, NP_013935.1, N-terminal His-tag (Saccharomyces cerevisiae, UniProt P07277)", "T5 construct": "His-tag (N); made in house; host or cells: E. coli BL21(DE3)", "T5 sequence (P07277 1-443)": "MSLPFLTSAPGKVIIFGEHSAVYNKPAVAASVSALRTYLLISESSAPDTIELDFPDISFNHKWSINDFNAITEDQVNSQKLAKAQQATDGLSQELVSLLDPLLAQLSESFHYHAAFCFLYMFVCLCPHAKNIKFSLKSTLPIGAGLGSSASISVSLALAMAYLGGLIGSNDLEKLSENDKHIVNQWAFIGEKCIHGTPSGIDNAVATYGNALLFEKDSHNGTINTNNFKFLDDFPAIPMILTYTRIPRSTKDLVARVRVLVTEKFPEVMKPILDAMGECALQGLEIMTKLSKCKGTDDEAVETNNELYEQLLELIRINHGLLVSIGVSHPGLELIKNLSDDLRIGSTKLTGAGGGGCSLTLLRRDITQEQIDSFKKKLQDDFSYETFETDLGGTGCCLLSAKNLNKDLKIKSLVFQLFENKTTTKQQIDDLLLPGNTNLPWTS", "test": "Inhibition of sce-derived mevalonate kinase by DMAPP, GPP, FPP or DPM", "assay_type": "biochemical", "conditions": "control 0.1028", "method": "as §1, §2, §3"}, "[7]": {"target": "T4, Nitrosopumilus maritimus mevalonate kinase (nmr), wild type, SEQ ID NO:9, N-terminal His-tag", "test": "Examination of product inhibition on nmr-derived mevalonate kinase", "assay_type": "biochemical", "conditions": "reaction on 1 mM mevalonate"}, "[8]": {"test": "HPLC verification of prepared potassium mevalonate after frozen storage", "conditions": "HPLC peak area versus lithium mevalonate standard; stored at −20° C.", "procedure": "The mixed solution was then incubated at 37° C. for 2 hours. After incubation, pH of the solution was adjusted to 8.0 by neutralization with hydrochloric acid.\nHPLC used for the verification was HITACH High-Performance Liquid Chromatography (L-2000). HPLC was performed by using YMC-Pack ODS-A (150×4.6 mm I.D.: YMC CO., LTD.) as stationary phase and phosphoric acid (pH2.5) as mobile phase. Detection was performed at 210 nm."}, "[9]": {"target": "T1, Methanosaeta concilii mevalonate kinase (mcl), wild type, SEQ ID NO:6, N-terminal His-tag", "test": "Km and kcat of mevalonate kinase (mcl-derived)", "conditions": "compared with the other enzymes", "procedure": "(§4) Each obtained plasmid was used for transformation of E. coli BL21(DE3). […] When OD600 reached approximately 0.5, 0.1 mM IPTG (for cva, mma, nmr, and sce) or 1 mM (for mcl and mpd) of IPTG was added, and then the mixture was kept at 20° C. overnight to induce the target protein. […] After centrifugation (28,000×g, 30 min), the supernatant was adsorbed onto His-Trap HP (GE Healthcare) to elute the target protein by linear concentration gradient of Imidazol (final concentration 0.5 M). Obtained protein was dialyzed by using an external solution composed of 20 mM Tris-HCl (pH 8.0) containing 1 mM DTT and 50 mM NaCl. Dialyzed protein was designated as purified enzyme. Protein quantity was measured with Bio-RAD protein assay kit and BSA standard condition.\n(§5) Decrease in absorbance at 340 nm at 30° C. was measured to determine the enzyme activity. JASCO Corporation's spectrophotometer (V-650) was used in this study. […] Km value was calculated by Lineweaver-Burk plot."}, "[10]": {"target": "T3, Methanocella paludicola mevalonate kinase (mpd), wild type, SEQ ID NO:1, N-terminal His-tag", "test": "Km and kcat of mevalonate kinase (mpd-derived)", "conditions": "compared with the other enzymes", "procedure": "as §4, §5"}}, "note": "Where a name gives a salt, the structure may show the parent alone."}
{"smiles": "CC(O)(CCOP(=O)(O)OP(=O)(O)O)CC(=O)O", "note": "(racemic) [DPM, (±)-mevalonic acid 5-diphosphate tetralithium salt]", "values": [{"measurement": "Enzyme activity with 1 mM DPM", "setting": "[1]", "value": 0.07555, "unit": "dABS/min"}, {"measurement": "Enzyme activity with 1 mM DPM", "setting": "[2]", "value": 0.1353, "unit": "dABS/min"}, {"measurement": "Enzyme activity with 1 mM DPM", "setting": "[3]; 1 mM DPM, control 0.1604", "value": 0.1368, "unit": "dABS/min"}, {"measurement": "Inhibition by DPM", "setting": "[3]; 1 mM diphosphomevalonate", "value": "Slight inhibitory activity"}, {"measurement": "Enzyme activity with 1 mM DPM", "setting": "[4]", "value": 0.156, "unit": "dABS/min"}, {"measurement": "Enzyme activity with 1 mM DPM", "setting": "[5]", "value": 0.2, "unit": "dABS/min"}, {"measurement": "Enzyme activity with 1 mM DPM", "setting": "[6]", "value": 0.0984, "unit": "dABS/min"}, {"measurement": "DPM-induced inhibition", "setting": "[7]", "value": "inhibition is not observed"}]}
{"smiles": "C[C@@](O)(CCO)CC(=O)[O-].[K+]", "note": "[potassium mevalonate]", "values": [{"measurement": "stability after frozen storage", "setting": "[8]", "value": "stable"}]}
{"smiles": "Nc1ncnc2c1ncn2[C@@H]1O[C@H](COP(=O)(O)OP(=O)(O)OP(=O)(O)O)[C@@H](O)[C@H]1O", "note": "[ATP]", "values": [{"measurement": "Affinity", "setting": "[9]", "value": "higher affinity"}, {"measurement": "Affinity", "setting": "[10]", "value": "higher affinity"}]}
